Measured values as given in US12213963B2, “Topical formulation of disease-modifying antirheumatic drug (DMARDs) for the treatment of rheumatoid arthritis, melanoma, squamous cell carcinoma, atopic dermatitis, and psoriasis” (priority 2022, dated 2025).

Experiment: Solubility of leflunomide in oils, surfactants and co-surfactants
Assay type: physicochemical
Method: Solubility of leflunomide was investigated in various oils, surfactants and co-surfactants. The selected excipients showing good solubility were further screened using turbidimetric method to check the emulsification efficiency of the system. Water titration method was used to select combination of oil, surfactant and co surfactant which provided clear systems with water. Briefly, the drug was dissolved in the oil by vortexing. Surfactant and co-surfactants were added to the oil phase and further titrated with water to check the ease of emulsification. The globule size of these systems was determined. Capryol® 90 and Capmul® PG2L were selected as the oil component. The solubility of the drug was highest in these oils and adequate to achieve the required drug loading. […] Out of the various gelling agents screened, Carbopol® 974P was selected because it formed uniform gel with good texture and consistency.

Cc1oncc1C(=O)Nc1ccc(C(F)(F)F)cc1 [leflunomide]
drug solubility in co-surfactant PEG 400: higher drug solubility
drug solubility in surfactants Tween 20 and Kolliphor RH 40: high drug solubility
solubility of the drug in oils Capryol 90 and Capmul PG2L (compared with other oils screened): highest
